The record followed here is US7074789B2, “Kinase inhibitors” (Amgen Inc., priority 1999, dated 2006).

pIC50: −log10 of the molar value.

Common to all, as to assay type: biochemical
In one assay the target is T1, Lck (Homo sapiens, UniProt P06239).
T1 construct: Kinases are expressed as either kinase domains or full length constructs; made in house
The assay is described as follows: Kinase inhibition assay (33P transfer), Lck. The following applies: read-out: Lck-1. The procedure, abridged:
(§1)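 Recombinant kinase-domain or full-length fusion proteins (GST or His tag) served as enzyme. Substrate poly(Glu,Tyr) 4:1 or poly(Arg,Ser) 3:1 was bound to the plate; transferred 33P was read by liquid scintillation following acid washing.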

The target in the next assay is T2, Zap-70 (Homo sapiens, UniProt P43403).
T2 construct: Kinases are expressed as either kinase domains or full length constructs; made in house
T2 sequence (P43403 1-619): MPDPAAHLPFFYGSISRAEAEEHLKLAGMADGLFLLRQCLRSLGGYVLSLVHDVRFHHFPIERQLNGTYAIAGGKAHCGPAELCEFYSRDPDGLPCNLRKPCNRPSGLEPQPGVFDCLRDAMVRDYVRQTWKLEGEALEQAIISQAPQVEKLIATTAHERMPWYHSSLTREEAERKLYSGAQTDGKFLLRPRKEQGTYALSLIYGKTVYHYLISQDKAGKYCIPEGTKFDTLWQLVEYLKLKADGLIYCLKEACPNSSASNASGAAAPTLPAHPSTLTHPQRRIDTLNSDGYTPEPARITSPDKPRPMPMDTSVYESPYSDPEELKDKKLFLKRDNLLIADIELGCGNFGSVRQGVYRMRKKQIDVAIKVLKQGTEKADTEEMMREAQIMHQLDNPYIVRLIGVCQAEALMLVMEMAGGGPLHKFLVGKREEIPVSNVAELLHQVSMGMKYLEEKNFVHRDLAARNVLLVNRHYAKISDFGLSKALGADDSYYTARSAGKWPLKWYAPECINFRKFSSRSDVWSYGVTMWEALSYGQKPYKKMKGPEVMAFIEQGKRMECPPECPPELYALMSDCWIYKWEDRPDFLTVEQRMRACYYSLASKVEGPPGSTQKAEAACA
The assay is described as follows: Kinase inhibition assay (33P transfer), Zap-70. The settings on record: read-out: Zap-1. The essentials:
as §1

Another assay addresses T3, Itk (Homo sapiens, UniProt Q08881).
T3 construct: Kinases are expressed as either kinase domains or full length constructs; made in house
T3 sequence (Q08881 1-620): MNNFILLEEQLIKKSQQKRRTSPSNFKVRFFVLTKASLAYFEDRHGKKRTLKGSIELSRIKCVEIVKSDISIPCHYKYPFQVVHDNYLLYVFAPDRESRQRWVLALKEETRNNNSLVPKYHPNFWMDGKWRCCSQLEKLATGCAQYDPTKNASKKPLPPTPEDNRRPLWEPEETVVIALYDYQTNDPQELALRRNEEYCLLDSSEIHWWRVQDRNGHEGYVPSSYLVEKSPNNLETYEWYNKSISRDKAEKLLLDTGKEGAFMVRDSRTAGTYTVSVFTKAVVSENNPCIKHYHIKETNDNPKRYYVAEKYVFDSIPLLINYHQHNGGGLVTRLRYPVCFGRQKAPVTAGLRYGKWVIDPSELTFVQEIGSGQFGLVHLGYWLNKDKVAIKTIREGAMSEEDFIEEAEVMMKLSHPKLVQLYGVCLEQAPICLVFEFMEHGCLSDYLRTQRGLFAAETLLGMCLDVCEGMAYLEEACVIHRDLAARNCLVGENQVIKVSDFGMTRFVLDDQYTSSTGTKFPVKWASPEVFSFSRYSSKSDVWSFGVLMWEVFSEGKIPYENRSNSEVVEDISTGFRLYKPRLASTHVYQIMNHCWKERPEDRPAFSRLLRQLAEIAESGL
The assay is described as follows: Kinase inhibition assay (33P transfer), Itk. The settings on record: read-out: Itk-1. The procedure, abridged: (§2)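 Each enzyme, purified to near homogeneity by affinity chromatography, was incubated with ATP carrying 33P and a substrate polymer fixed to the plate. Unbound label was removed with dilute phosphoric acid (0.5%) before adding scintillant and counting. Potency is given as the compound level cutting label uptake by 50%.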

In the next assay the target is T4, EGFR (Homo sapiens, UniProt P00533).
T4 construct: Kinases are expressed as either kinase domains or full length constructs; made in house
Nature of the assay: Kinase inhibition assay (33P transfer), EGFR. The following applies: Table 2, kinase inhibition class; read-out: EGFR-1. The essentials: as §2

Another assay addresses T5, ErbB2 (Homo sapiens, UniProt P04626).
T5 construct: Kinases are expressed as either kinase domains or full length constructs; made in house
Nature of the assay: Kinase inhibition assay (33P transfer), ErbB2. The settings on record: read-out: ErbB2-2. The essentials: as §2

In another assay the target is T6, Kdr (Homo sapiens, UniProt P35968).
T6 construct: Kinases are expressed as either kinase domains or full length constructs; made in house
The assay is described as follows: Kinase inhibition assay (33P transfer), Kdr. The following applies: read-out: KDR-1. The essentials: as §1

The target of a further assay is T7, c-Met (Homo sapiens, UniProt P08581).
T7 construct: Kinases are expressed as either kinase domains or full length constructs; made in house
T7 sequence (P08581 25-1390): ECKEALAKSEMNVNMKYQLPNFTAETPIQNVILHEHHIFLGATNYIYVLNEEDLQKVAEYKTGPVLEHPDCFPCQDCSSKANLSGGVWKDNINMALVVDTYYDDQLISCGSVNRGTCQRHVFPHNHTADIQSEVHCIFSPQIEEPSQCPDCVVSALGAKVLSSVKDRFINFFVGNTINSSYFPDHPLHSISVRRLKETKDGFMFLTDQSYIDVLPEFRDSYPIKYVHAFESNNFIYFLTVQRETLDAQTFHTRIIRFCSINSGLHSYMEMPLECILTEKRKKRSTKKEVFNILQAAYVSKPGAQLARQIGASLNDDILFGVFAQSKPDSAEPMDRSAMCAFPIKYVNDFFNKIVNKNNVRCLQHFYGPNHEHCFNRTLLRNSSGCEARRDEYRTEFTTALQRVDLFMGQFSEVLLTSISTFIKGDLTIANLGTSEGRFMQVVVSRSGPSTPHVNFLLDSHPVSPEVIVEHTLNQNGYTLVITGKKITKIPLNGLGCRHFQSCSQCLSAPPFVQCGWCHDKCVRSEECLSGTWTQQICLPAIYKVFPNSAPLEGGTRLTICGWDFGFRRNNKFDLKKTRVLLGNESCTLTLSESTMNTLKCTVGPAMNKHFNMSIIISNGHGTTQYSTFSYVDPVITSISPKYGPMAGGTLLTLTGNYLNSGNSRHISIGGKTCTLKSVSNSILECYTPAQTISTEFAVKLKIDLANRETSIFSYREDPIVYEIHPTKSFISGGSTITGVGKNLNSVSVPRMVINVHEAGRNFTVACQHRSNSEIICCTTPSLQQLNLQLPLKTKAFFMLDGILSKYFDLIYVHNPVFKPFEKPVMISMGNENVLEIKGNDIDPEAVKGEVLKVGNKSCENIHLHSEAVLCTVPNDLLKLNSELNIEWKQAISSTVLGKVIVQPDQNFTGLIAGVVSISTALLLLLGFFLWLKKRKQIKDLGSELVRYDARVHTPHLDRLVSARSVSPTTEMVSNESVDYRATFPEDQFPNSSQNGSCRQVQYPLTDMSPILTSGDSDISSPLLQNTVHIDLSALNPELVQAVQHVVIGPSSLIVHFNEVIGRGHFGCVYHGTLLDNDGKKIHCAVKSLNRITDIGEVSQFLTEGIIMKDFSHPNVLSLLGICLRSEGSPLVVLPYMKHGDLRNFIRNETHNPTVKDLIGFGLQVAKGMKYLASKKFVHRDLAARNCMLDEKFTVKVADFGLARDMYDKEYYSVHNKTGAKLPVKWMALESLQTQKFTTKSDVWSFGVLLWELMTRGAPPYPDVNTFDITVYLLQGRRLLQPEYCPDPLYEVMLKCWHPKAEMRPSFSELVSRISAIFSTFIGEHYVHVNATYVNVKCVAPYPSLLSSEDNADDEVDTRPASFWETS
The assay is described as follows: Kinase inhibition assay (33P transfer), c-Met. The following applies: Table 2, kinase inhibition class; read-out: Met-1. The essentials: as §2

For another assay, the target named is T8, AKT (Homo sapiens, UniProt Q9Y243).
T8 construct: Kinases are expressed as either kinase domains or full length constructs; made in house
T8 sequence (Q9Y243 whole entry, the tested form may be a part): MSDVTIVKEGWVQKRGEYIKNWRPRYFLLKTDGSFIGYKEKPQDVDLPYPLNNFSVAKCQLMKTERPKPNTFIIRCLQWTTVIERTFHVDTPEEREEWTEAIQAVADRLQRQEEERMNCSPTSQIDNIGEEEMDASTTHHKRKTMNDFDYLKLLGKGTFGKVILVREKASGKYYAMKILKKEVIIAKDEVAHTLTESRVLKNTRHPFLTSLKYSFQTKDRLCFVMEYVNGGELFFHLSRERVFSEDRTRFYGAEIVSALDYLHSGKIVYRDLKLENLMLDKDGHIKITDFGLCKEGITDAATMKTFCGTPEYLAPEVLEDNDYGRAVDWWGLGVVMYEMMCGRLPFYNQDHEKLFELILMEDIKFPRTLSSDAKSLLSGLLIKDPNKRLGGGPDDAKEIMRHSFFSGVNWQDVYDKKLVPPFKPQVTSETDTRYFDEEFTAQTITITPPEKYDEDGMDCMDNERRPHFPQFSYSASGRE
Nature of the assay: Kinase inhibition assay (33P transfer), AKT. The following applies: Table 2, kinase inhibition class; read-out: AKT3-1. The procedure, abridged:
as §1

The target of a further assay is T9, IGFR-1 (Homo sapiens, UniProt P08069).
T9 construct: Kinases are expressed as either kinase domains or full length constructs; made in house
T9 sequence (P08069 31-1367): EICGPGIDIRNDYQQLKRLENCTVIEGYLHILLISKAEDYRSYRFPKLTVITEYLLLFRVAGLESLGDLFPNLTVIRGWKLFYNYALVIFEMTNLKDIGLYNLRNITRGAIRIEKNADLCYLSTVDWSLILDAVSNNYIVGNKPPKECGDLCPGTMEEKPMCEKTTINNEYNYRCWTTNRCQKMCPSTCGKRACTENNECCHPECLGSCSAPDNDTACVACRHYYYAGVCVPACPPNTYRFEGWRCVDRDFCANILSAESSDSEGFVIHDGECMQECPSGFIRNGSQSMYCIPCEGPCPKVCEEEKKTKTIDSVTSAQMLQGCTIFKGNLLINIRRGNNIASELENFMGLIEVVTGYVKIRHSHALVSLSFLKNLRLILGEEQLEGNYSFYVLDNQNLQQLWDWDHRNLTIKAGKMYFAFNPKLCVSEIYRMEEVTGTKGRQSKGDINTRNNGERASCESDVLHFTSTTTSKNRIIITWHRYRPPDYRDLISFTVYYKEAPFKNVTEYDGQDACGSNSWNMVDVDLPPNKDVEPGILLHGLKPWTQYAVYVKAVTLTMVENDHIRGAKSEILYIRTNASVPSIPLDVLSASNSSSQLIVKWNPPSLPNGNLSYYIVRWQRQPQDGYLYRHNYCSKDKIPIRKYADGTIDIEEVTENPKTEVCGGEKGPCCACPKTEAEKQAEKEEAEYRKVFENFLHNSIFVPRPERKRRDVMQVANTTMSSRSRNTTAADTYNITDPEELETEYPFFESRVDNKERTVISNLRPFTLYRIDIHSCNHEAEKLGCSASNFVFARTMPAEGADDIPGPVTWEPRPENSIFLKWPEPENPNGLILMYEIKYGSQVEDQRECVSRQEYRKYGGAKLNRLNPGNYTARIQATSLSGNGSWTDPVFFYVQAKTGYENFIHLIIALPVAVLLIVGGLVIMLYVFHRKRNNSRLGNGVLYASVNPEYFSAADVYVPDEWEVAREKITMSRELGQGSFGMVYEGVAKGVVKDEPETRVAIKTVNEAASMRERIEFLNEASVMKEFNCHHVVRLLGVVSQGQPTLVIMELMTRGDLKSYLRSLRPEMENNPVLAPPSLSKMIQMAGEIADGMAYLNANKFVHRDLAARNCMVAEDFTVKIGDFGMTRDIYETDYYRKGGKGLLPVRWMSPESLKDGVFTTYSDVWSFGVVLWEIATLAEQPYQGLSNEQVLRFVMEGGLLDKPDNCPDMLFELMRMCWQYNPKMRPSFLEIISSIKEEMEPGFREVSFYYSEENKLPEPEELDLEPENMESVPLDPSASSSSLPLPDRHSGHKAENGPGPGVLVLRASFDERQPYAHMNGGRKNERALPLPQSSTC
Nature of the assay: Kinase inhibition assay, IGFR-1 (Table 2). The following applies: Table 2, kinase inhibition class.

A further assay addresses T10, PDGFRB (Homo sapiens, UniProt P09619).
T10 construct: Kinases are expressed as either kinase domains or full length constructs; made in house
The assay is described as follows: Kinase inhibition assay (33P transfer), PDGFRB. The following applies: read-out: PDGFRB-1.

T10 sequence (P09619 33-1106, species assumed): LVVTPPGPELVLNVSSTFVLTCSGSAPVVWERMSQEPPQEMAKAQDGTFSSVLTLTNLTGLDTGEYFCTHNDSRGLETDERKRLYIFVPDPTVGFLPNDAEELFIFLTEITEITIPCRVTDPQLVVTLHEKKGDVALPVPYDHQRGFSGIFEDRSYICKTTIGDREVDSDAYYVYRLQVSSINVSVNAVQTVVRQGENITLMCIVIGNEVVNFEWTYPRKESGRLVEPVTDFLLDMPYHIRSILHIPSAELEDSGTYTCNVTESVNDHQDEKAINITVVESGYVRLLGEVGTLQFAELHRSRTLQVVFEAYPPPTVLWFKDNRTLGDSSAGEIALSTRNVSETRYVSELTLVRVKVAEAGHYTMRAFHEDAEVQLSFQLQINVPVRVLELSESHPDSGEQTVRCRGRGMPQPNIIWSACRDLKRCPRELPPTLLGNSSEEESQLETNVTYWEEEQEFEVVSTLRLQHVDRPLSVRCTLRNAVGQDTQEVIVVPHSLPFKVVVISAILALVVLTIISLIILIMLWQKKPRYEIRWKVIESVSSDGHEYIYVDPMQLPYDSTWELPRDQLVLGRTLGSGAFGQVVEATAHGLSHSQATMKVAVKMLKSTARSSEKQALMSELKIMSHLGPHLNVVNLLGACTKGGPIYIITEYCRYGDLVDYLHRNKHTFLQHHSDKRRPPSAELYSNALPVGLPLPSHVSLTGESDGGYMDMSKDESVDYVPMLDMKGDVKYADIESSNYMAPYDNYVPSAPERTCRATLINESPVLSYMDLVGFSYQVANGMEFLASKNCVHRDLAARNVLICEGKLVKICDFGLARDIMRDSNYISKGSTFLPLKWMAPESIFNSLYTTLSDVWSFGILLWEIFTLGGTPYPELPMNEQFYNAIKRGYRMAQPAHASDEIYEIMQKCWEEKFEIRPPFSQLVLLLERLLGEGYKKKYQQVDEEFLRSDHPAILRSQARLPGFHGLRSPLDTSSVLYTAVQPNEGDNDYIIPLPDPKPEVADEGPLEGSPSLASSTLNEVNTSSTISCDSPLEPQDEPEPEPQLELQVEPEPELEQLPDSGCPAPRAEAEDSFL
T1 sequence (P06239 whole entry, species assumed, the tested form may be a part): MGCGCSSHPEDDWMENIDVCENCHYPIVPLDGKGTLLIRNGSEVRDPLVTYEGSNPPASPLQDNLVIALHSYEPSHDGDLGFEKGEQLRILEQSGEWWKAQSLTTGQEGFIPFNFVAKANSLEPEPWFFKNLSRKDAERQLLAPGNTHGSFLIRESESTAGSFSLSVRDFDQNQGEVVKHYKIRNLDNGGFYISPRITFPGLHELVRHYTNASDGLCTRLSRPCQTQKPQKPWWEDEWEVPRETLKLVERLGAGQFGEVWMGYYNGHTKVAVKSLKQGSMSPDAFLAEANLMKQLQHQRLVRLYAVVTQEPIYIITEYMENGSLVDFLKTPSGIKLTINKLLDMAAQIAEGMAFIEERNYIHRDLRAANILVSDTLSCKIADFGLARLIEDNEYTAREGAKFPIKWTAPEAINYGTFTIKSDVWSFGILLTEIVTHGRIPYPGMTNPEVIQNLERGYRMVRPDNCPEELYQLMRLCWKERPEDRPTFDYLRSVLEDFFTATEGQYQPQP

For `CNS(=O)(=O)Cc1ccc(Nc2ncnc(Nc3ccc4c(cnn4Cc4ccccc4)c3)n2)cc1` [Compound 736], the pIC50 on Lck, at Zap-70, at Itk, at EGFR, at ErbB2 and on Kdr was 5.32 to 6.10 throughout. The pIC50 at c-Met, at AKT, against IGFR-1 and at PDGFRB was 5.32 to 6.10 throughout.
`c1ccc(Cn2ncc3cc(Nc4ncnc(Nc5cc(-c6ccccc6)[nH]n5)n4)ccc32)cc1` [Compound 737]: the pIC50 was 5.12 to 5.28 on Lck; 5.01 to 5.12 at Zap-70; 5.28 to 6.06 at Itk; 5.28 to 6.06 on EGFR; 5.28 to 6.06 on ErbB2; 5.28 to 6.06 at Kdr. In addition, the pIC50 on c-Met was 5.12 to 5.28; on AKT, 5.01 to 5.12; at IGFR-1 it was 5.28 to 6.06; at PDGFRB, 5.12 to 5.28.
Consider `c1ccc(Cn2ncc3cc(Nc4ncnc(Nc5ncccn5)n4)ccc32)cc1` [Compound 738], for which the pIC50 on Lck was under 4.94; on Zap-70, under 4.94; at Itk it was 5.22 to 6.00; at EGFR, 5.22 to 6.00; at ErbB2, 5.05 to 5.22; at Kdr it was under 4.94. The pIC50 is under 4.94 on c-Met, under 4.94 at AKT, 5.22 to 6.00 against IGFR-1 and under 4.94 on PDGFRB.
Take `CN(c1cccc(Cl)c1)c1ncnc(NCC2CCCO2)n1` (centres unmarked) [Compound 739]: the pIC50 on Lck was under 4.85; on Zap-70 it was under 4.85; at Itk, under 4.85; on EGFR, 5.12 to 5.90; on ErbB2, under 4.85; at Kdr it was under 4.85. In addition, the pIC50 at c-Met, at AKT, against IGFR-1 and at PDGFRB was under 4.85 throughout.
As to `CN(c1cccc(Cl)c1)c1ncnc(NCCN2CCCCC2)n1` [Compound 740], the pIC50 was under 4.89 at Lck; under 4.89 on Zap-70; under 4.89 at Itk; 5.00 to 5.16 at EGFR; under 4.89 on ErbB2; under 4.89 at Kdr. Moreover, the pIC50 at c-Met, on AKT, against IGFR-1 and at PDGFRB was under 4.89 throughout.
For `COc1cccc(Nc2ncnc(N(C)c3cccc(Cl)c3)n2)c1` [Compound 741], the pIC50 is 4.99 to 5.15 at Lck; under 4.88 at Zap-70; under 4.88 on Itk; over 5.93 on EGFR; 5.15 to 5.93 at ErbB2; under 4.88 on Kdr. The pIC50 at c-Met is under 4.88; at AKT, under 4.88; against IGFR-1, under 4.88; at PDGFRB, 4.99 to 5.15.
On to `CN(c1cccc(Cl)c1)c1ncnc(Nc2ccc(F)c(C(F)(F)F)c2)n1` [Compound 742], for which the pIC50 on Lck was under 4.95; on Zap-70 it was under 4.95; at Itk it was under 4.95; on EGFR, 5.22 to 6.00; on ErbB2, under 4.95; at Kdr, under 4.95. Further, the pIC50 on c-Met, on AKT, on IGFR-1 and at PDGFRB was under 4.95 in each case.
For `COc1ccc(Nc2ncnc(N(C)c3cccc(Cl)c3)n2)cc1` [Compound 743], the pIC50 on Lck is under 4.88; on Zap-70 it was under 4.88; on Itk, under 4.88; on EGFR it was over 5.93; on ErbB2 it was under 4.88; at Kdr, under 4.88. Further, the pIC50 at c-Met, on AKT, against IGFR-1 and at PDGFRB was under 4.88 each time.
For the molecule `CN(c1cccc(Cl)c1)c1ncnc(Nc2ccc(C(F)(F)F)cc2)n1` [Compound 744], the pIC50 on Lck was under 4.93; at Zap-70, under 4.93; at Itk, under 4.93; on EGFR it was 5.20 to 5.98; on ErbB2, under 4.93; at Kdr, under 4.93. The pIC50 on c-Met, at AKT, against IGFR-1 and at PDGFRB was under 4.93 throughout.
Regarding `CCN(CC)CCNc1ncnc(N(C)c2cccc(Cl)c2)n1` [Compound 745], the pIC50 at Lck was under 4.87; on Zap-70, under 4.87; at Itk, under 4.87; at EGFR it was 5.14 to 5.92; at ErbB2, under 4.87; at Kdr, under 4.87. Also, the pIC50 on c-Met, on AKT, against IGFR-1 and at PDGFRB was under 4.87 throughout.
As to `CN(c1cccc(Cl)c1)c1ncnc(NCCOCCO)n1` [Compound 746], the pIC50 on Lck, at Zap-70, on Itk, at EGFR, on ErbB2 and on Kdr was under 4.86 each time. Besides, the pIC50 on c-Met, on AKT, on IGFR-1 and at PDGFRB was under 4.86 in each case.
Consider `COc1cc(CNc2ncnc(N(C)c3cccc(Cl)c3)n2)cc(OC)c1OC` [Compound 747], for which the pIC50 on Lck is under 4.97; at Zap-70 it was under 4.97; at Itk, under 4.97; on EGFR, 5.07 to 5.24; at ErbB2 it was under 4.97; at Kdr, under 4.97. The pIC50 at c-Met, on AKT, at IGFR-1 and at PDGFRB was under 4.97 each time.
As for `CN(c1cccc(Cl)c1)c1ncnc(Nc2ccccc2)n1` [Compound 748], the pIC50 was 5.11 to 5.89 at Lck; under 4.84 at Zap-70; under 4.84 on Itk; over 5.89 on EGFR; 5.11 to 5.89 on ErbB2; 4.95 to 5.11 on Kdr. For the same molecule, the pIC50 at c-Met was 5.11 to 5.89; on AKT, under 4.84; at IGFR-1 it was 4.95 to 5.11; on PDGFRB, 5.11 to 5.89.
For `CN(c1cccc(Cl)c1)c1ncnc(Nc2ccc(S(C)(=O)=O)cc2)n1` [Compound 749], the pIC50 was 5.21 to 5.99 on Lck; under 4.94 on Zap-70; under 4.94 on Itk; over 5.99 at EGFR; 5.21 to 5.99 on ErbB2; 5.05 to 5.21 at Kdr. Besides, the pIC50 was 5.21 to 5.99 on c-Met, under 4.94 at AKT, under 4.94 at IGFR-1 and 5.21 to 5.99 at PDGFRB.
